The RepoRT retention time repository (doi:10.1021/acs.analchem.2c02893)

Test: RP, Thermo Scientific Acclaim RSLC 120 C18, 100 × 2.1 mm, 2.2 µm, 30 °C, 0.2 mL/min, estimated dead time 1.1 min; A: 90% water + 10% methanol + 0.01% formic acid + 5 mM ammonium formate, pH 3.61; B: methanol + 0.01% formic acid + 5 mM ammonium formate, pH 3.61; gradient (min/%B) 0/1 1/1 2/39 13/99.9 15/99.9 15.1/1 20.1/1
Settings: stereoisomer not certain

Compound	LC retention time [min]
NC(N)=Nc1nc(CSCCC(N)=NS(N)(=O)=O)cs1 [Famotidine]	3.24
CCOC(=O)CCN(Cc1ccccc1)SN(C)C(=O)ON=C(C)SC [Alanycarb]	10.8
N=C(N)N1CCc2ccccc2C1 [Debrisoquine]	4.39
OC(c1ccc(Cl)cc1)(c1ccc(Cl)cc1)C(Cl)(Cl)Cl [Dicofol]	11.8
O=C1NCC(=O)N2C1Cc1c([nH]c3ccccc13)C2c1ccc2c(c1)OCO2 (stereo unspecified) [Tadalafil-Nor]	7.99
CCC=CCC1=C(C)C(OC(=O)C2C(C=C(C)C)C2(C)C)CC1=O (stereo unspecified) [Pyrethrins: Jasmolin I]	13.3
CC12Cc3cn[nH]c3CC1CCC1C2CCC2(C)C1CCC2(C)O (stereo unspecified) [Stanozolol]	11.3
CCOC(=O)C(c1ccccc1)N1CCCCC1 (stereo unspecified) [Ethylphenidate]	5.08
c1ccc(C2CN3CCSC3=N2)cc1 (stereo unspecified) [Levamisol]	3.68
CCNc1nc(Cl)nc(NC(C)(C)C#N)n1 [Cyanazine]	6.55
CC(C)C(O)(c1ccc(OC(F)(F)F)cc1)c1cncnc1 (stereo unspecified) [Flurprimidol]	9.62
Cc1cccc(C)c1OCC(C)N (stereo unspecified) [Mexiletine]	5.59
Cc1nc([N+](=O)[O-])cn1CCO [Metronidazole]	3.58
CCCc1cc(OC)c(CCN)cc1OC [2 C-P]	7.46
CN(C)CCOc1ccc(C(=C(CCCl)c2ccccc2)c2ccccc2)cc1 [Toremifene]	10.5
CC(=O)c1ccc(S(=O)(=O)NC(=O)NC2CCCCC2)cc1 [Acetohexamide]	7.72
CCCOP(=S)(OCCC)OP(=S)(OCCC)OCCC [Aspon]	12.9
COC(=O)C(Cl)Cc1ccc(Cl)cc1 (stereo unspecified) [Chlorfenprop-methyl]	10.2

Compound	LC retention time [min]
CCOC(=O)c1ccccc1S(=O)(=O)NC(=O)Nc1nc(Cl)cc(OC)n1 [Chlorimuronethyl]	9.3
O=C(O)Cc1c[nH]c2ccc(O)cc12 [5-Hydroxyindole-3-acetic acid]	3.93
Cc1ccccc1N1C(=O)c2cc(S(N)(=O)=O)c(Cl)cc2NC1C (stereo unspecified) [Metolazone]	6.08
CCCCCn1c2ccccc2c2cc(C(=O)c3cccc4ccccc34)ccc21 [EG-018]	14.2
CC(C)([CH2][Sn+]([CH2]C(C)(C)c1ccccc1)[CH2]C(C)(C)c1ccccc1)c1ccccc1 [Fenbutatin Oxide Fragm 519]	14.5
O=C(c1cccc2ccccc12)c1cn(CCCCCO)c2ccccc12 [JWH-018-M-N-5-OH-Pentyl]	10
COc1ccc(OC)c(CC(C)N)c1 (stereo unspecified) [2-5-DMA]	4.78
CC(C)(C)N(NC(=O)c1ccc(Cl)cc1)C(=O)c1ccccc1 [Halofenozide]	9.25
COC(=O)C(NC(=O)c1nn(Cc2ccc(F)cc2)c2ccccc12)C(C)C (stereo unspecified) [FUB-AMB]	10.8
CN(C)CCN(Cc1ccc(Cl)cc1)c1ccccn1 [Chloropyramine]	7.09
CC12CCC(=O)C=C1CCC1C2CCC2(C)C(OC(=O)c3ccccc3)CCC12 (stereo unspecified) [Testosterone benzoate]	13.8
O=C(NC(=O)c1c(F)cccc1F)Nc1cc(Cl)c(F)c(Cl)c1F [Teflubenzuron]	12.5
Cc1cccc(C)c1N(Cn1cccn1)C(=O)CCl [Metazachlor]	8.11
CCOP(=O)(OCC)SCSCC [Phorate-oxon]	8.6
CN(C)CCc1c[nH]c2ccc(O)cc12 [Bufotenin]	2.82
O=C(NCCN1CCOCC1)c1ccc(Cl)cc1 [Moclobemide]	4.98
CCCCCn1nc(C(=O)Oc2cccc3cccnc23)c2ccccc21 [NPB-22]	11.4
CC(C)(C)C(NC(=O)c1nn(CCCCCF)c2ccccc12)C(N)=O (stereo unspecified) [ADB-PINACA-5F]	9.86
